Patent US20040106678A1, “Compositions for the parenteral administration of calcium and magnesium” (priority 2002, published 2004)

What was measured:
[1] = saturated aqueous solution at 20° C.; cited from earlier work
[2] = toxicity / tolerability on parenteral use; conditions: anion is a naturally occurring mammalian metabolite
pH of aqueous solution = format: physicochemical
[3] = stability of the powder / shelf life; format: physicochemical
[4] = parenteral administration; cited from earlier work

Compound: D-gluconic acid calcium salt [Calcium gluconate]
- pH of saturated solution [1]: 6-7

Compound: calcium 3-hydroxy-3-methylbutyrate [CaHMB]
- toxicity [2]: non-toxic
- pH of saturated aqueous solution (pH of aqueous solution; 27% by weight saturated aqueous solution at 20° C.): neutral or slightly alkaline
- pH of aqueous solution in distilled water (pH of aqueous solution; if pure, dissolved in distilled water): nearly neutral or slightly alkaline
- powder stability / shelf life [3]: stable powders with long shelf lives

Compound: [Ca+2].[Cl-].[Cl-] [Calcium chloride]
- venous toxicity [4]: appreciably toxic to veins
